Source: patent US6995136B1, “Peptide fragments of murine epidermal growth factor as laminin receptor targets” (The Queen's University of Belfast, priority 1998, dated 2006)

Assays:
[1] = tested on: tumour cells; settings: already known in the field; cited from earlier work
[2] = tested on: C57-BL/6J mice; test: Murine model of proliferative retinopathy (retinopathy of prematurity, ROP); format: in vivo, mouse
Method: Litters of 7 day old C57-BL/6J mice, together with their nursing dams, are exposed to 80% oxygen in an incubator maintained at 23° C. and with a gas exchange of 1.5 L/min for 5 days according to the protocol described by Stitt et al. (1998). On postnatal day 12 (P12) the animals are returned to room air and sacrificed at various times posthyperoxia. Animals are treated with daily i.p. injections of either laminin agonists (10 μg per head per day) or vehicle control. Groups of room air controls are maintained in parallel with hyperoxia-exposed animals. Home Office project and personal licenses are held for this work. All animals are housed and maintained in accordance with the ARVO regulations for animal care in research.
Animals are sacrificed at pre-determined key stages in the vaso-obliteration (P7–P12), ischaemia (P12 onwards) and vaso-proliferative responses (P 12–21). At sacrifice, terminally anaesthetised animals have a single eye enucleated and the retina removed to be snap-frozen for later RNA-extraction (see below). The fellow eye is either perfused with fluorescein dextran or enucleated and fixed in 4% paraformaldehyde for histology, immunohistochemistry and in situ hybridisation.

[3] = tested on: angiogenesis in the chick; test: Chick angiogenesis model; format: in vivo; settings: chick
[4] = tested on: Endothelial cells (SK HEP-1 and BRCE); test: Migration assay (colloidal gold track area); format: cell-based; settings: mammalian cell lines
Method: The method used was basically as described by Albrecht-Buehler (1977). Briefly, coverslips (22×22 mm) were treated in 5% detergent (7×; ICN Biomedicals) and washed in alcohol to remove grease. After drying, they were immersed in gelatin solution (Sigma, 300 Bloom; 0.5 g in 300 ml distilled H2O) for 10 min. The coverslips were then dried by placing in a 70° C. oven for 45 min.
Colloidal gold suspension was prepared by adding 11 ml distilled H2O and 6 ml Na2CO3 (36.5 mM) to 1.8 ml AuHCl4 (14.5 mM). The mixture was heated to 95° C. at which point 1.8 ml of freshly prepared 0.1% formaldehyde solution was added; the temperature was maintained at 95° C. A suspension of colloidal gold was formed which was brown to absorbed light and blue to transmitted light.
The gold suspension, was then added to petri dishes containing individual coverslips and the plates incubated at 37° C. for 45 min. After washing with CFS (3×4 ml) to remove unattached gold particles, the coverslips were transferred to 6-well cluster dishes and UV sterilised.
Endothelial cells (SK HEP-1 and BRCE) in culture media (0.3 ml) were seeded onto the coverslips at an approximate density of 5×10^3 cells per well. The cells were allowed to plate down for 2 h at 37° C. after which the treatments were added. Assay systems were maintained for a further 18 h after which the cells were fixed using 3% gluteraldehyde in cacodylate buffer (pH 7.2).
The assays were examined using a Leica DM1RB phase contrast microscope and Q500MC image analysis system incorporating a JVC TK-1280E colour camera (Leica, Milton Keynes, UK). The track images of at least 30 cells were videocaptured and the area (representing migration response) determined for each. Statistical analysis of these areas was then carried out using Macintosh Instat software to perform both Kruskal-Wallis analysis of variance and Mann-Whitney U-tests in order to compare the treatment groups with controls.

[5] = tested on: angiogenesis in the chick; settings: already known in the field; cited from earlier work
[6] = target: T1, 67 kDa laminin receptor (67-LR) (Homo sapiens, UniProt P08865); test: 125I-laminin displacement (competition binding) on T47-D or SK HEP-1 cells; settings: relative to mEGF(33-42); 0.1 nM 125I-laminin, overnight 4° C.
T1 construct: endogenous in cells; host or cells: T47-D or SK HEP-1 cells (whole-cell suspension)
Method: ^125I-laminin was prepared using ^125I-labelled sodium iodide (Amersham, UK) and immobilised chloramine-T (Iodobeads; Pierce, Ill.). Prior to use, the beads were washed with 500 μl phosphate buffer (pH 6.5) to remove excess reagent from the support. These were then allowed to air dry and individual beads added to a solution of carrier free Na^125I, diluted with iodination buffer (phosphate buffer pH 7.4). The beads were allowed to equilibrate for 5 min.
Laminin (10 μg in 10 μl) was then diluted into the iodination buffer and the system incubated at 20° C. for 15 min. The solution was then removed from the reaction vessel and excess Na^125I and unincorporated ^125I2 separated from the iodinated protein by gel filtration on a GF-5 exclusion column (Pierce, Ill.). Iodinated laminin fractions were recovered at a specific activity of approximately 1.2 mCi/mg protein (864 Ci/mmol).
Near confluent cultures of T47-D or SK HEP-1 cells were removed from monolayer with 0.02% EGTA and passed through a G-25 syringe needle to produce single cell suspensions. Aliquots of each cell type (10^6 cells/ml) were dispensed into separate Ependorf tubes (1 ml each) and pelleted. The cells were then resuspended in 1 ml ice-cold RPMI (SK HEP-1) or DMEM (T47-D) containing 0.1% BSA and either laminin or synthetic peptide at the concentrations indicated. Iodinated laminin was then added to each cell suspension to give a final ^125I-laminin concentration of 0.1 nM (approximately 50,000 cpm). These mixtures were incubated overnight at 4° C.
The tubes were then microfuged at 10,000 g and the supernatant removed. After washing the pellet with 500 μl CFS, the remaining radioactivity was determined using a gamma radiation counter. Non-specific binding was determined by incubating cells with a 1000-fold molar excess of unlabelled laminin. All estimations were carried out in triplicate.
IC50 (concentration of unlabelled peptide required to produce 50% inhibition of radioligand binding) and EC50 (effective concentration for 50% inhibition of cell attachment) values were calculated using the Grafit curve-fitting programme (Erithacus Software, London, UK).

[7] = FIG. 1b versus 1a, 10 μg per head per day i.p.

receptor affinity, 125I-laminin displacement (IC50), in words [6]: equipotent
Sequence: CDPGYIGSR [Lam.β-1(925-933), CDPGYIGSR-NH2, synthetic peptide of amino acids 925–933 of the laminin β-1 chain, 67LR agonist, reference compound]
tumour establishment in mice [1]: inhibit tumour establishment in mice
re-canalisation of areas of vaso-obliteration [2, 7]: promotes re-canalisation of areas of vaso-obliteration
uncontrolled angiogenic response of ROP [2, 7]: prevents the uncontrolled angiogenic response of ROP
development of ROP ([2]; neonates, daily intraperitoneal injections of 10 μg): development of ROP can be prevented
laminin agonist/antagonist character in chick [3]: partial laminin antagonist
67LR agonist/antagonist character in mammalian cell lines [4]: pure agonist
67LR agonist/antagonist character in mammalian cell lines ([4]; listed as laminin β-1925-933): pure 67LR agonist
angiogenesis in the chick [5]: inhibits angiogenesis in the chick
